Values quoted from earlier work, collected in patent US20220370378A1 (SOCIETE DES PRODUITS NESTLE S.A., priority 2019, published 2022).

How the values were obtained:
[1] = humans
[2] = test system: GLUT4 translocation in skeletal muscle cells; settings: single-dose administration, compared among three inositol isomers

- mean time to reach the maximum level after ingestion [1]: about 3.8 h
Compound: O[C@H]1[C@H](O)[C@@H](O)[C@H](O)[C@@H](O)[C@@H]1O [scyllo-inositol, (1r,2r,3r,4r,5r,6r)-Cyclohexane-1,2,3,4,5,6-hexol]
- GLUT4 translocation [2]: most efficiently among three inositol isomers
